Consider one compound from US20260198495A1, “BINARY INSECTICIDE COMPOSITION AND USE THEREOF” (SHENYANG SINOCHEM AGROCHEMICALS R & D CO., LTD., priority 2022, published 2026).

Common to all, as to format: in vivo
The subject of test [1] is Bemisia tabaci (Gennadius) nymphs. The test is described as follows: Joint toxicity of I-72 + organophosphorus insecticides, cotton leaf-disk spraying, Example 18, Table 18. The conditions noted are these: nymphs, cotton leaf-disk spraying, 96 h, A = compound I-72, B = acephate, read-out: LC50. As to the method: Test target: Bemisia tabaci (Gennadius) nymphs.
(§1) Preparation of the pesticide solution: according to different test requirements, the test samples were accurately weighed respectively with an electronic analytical balance. The technical pesticides were dissolved in acetone, and then diluted with 0.1% Tween 80 water into a series of pesticide solutions with a certain concentration gradient according to the experimental design dosage.
(§2) Experimental method: first, cotton leaves with neat and consistent Bemisia tabaci (Gennadius) nymphs were selected and made into leaf disks, with about 20 insects on each leaf disk. Then, they were evenly sprayed with the pesticide solution in the order from low dosage to high dosage according to the experimental design, with 1.5 mL for each leaf and 3 replicates for each treatment. In addition, a blank control was set up.
The treated test materials were placed in an observation room, and the temperature, humidity and illumination of the observation room could be adjusted as needed. The number of dead and live insects was investigated 96 hours later. The corrected mortality rate was calculated using the Abbott's formula, and statistical analysis was performed with the DPS data processing software to obtain the toxicity regression equation, LC50 value and 95% confidence limit of each single test pesticide and each mixture of different ratios. Then, the co-toxicity coefficient of each ratio was calculated using the Sun Y-P method to evaluate the mixing effect (the same as in Example 1).

Test [2] relates to Thrips flavus Schrank nymphs. The test is described as follows: Joint toxicity of I-72 + spirotetramat, Example 26, Table 26. The conditions noted are these: A = compound I-72, B = spirotetramat, eggplant seedling spraying, 48 hours, read-out: LC50. As to the method: Test target: Thrips flavus Schrank nymphs.
as §1
Experimental method: first, eggplant seedlings with Thrips flavus Schrank were selected, and the base number was counted. Then, uniform spraying was performed with the pesticide solution in the order from low to high doses according to the experimental design, with 2 mL for each seedling and 3 replicates for each treatment. In addition, a blank control was set up.
The treated test materials were placed in an observation room, and the temperature, humidity and illumination of the observation room could be adjusted as needed. The number of dead and live insects was investigated 48 hours later. […] Then, the co-toxicity coefficient of each ratio was calculated using the Sun Y-P method to evaluate the mixing effect (the same as in Example 1).

Test [3] has as its system Bemisia tabaci (Gennadius) nymphs. The test is described as follows: Joint toxicity of I-72 + bifenthrin, Example 40, Table 40. The conditions noted are these: A = compound I-72, B = bifenthrin, cotton leaf-disk spraying, 96 hours, read-out: LC50. As to the method:
Test target: Bemisia tabaci (Gennadius) nymphs, a sensitive strain reared indoors.
as §1, §2
The treated test materials were placed in an observation room, and the temperature, humidity and illumination of the observation room could be adjusted as needed. The number of dead and live insects was investigated 96 hours later. […] Then, the co-toxicity coefficient of each ratio was calculated using the Sun Y-P method to evaluate the mixing effect (the same as in Example 1).

The test system of test [4] is 3rd-instar larvae of Chilo suppressalis (Walker). Nature of the test: Joint toxicity of I-72 + chlorantraniliprole, Example 57, Table 57. The conditions noted are these: A = compound I-72, B = chlorantraniliprole, rice stem dipping, 72 hours, read-out: LC50. As to the method:
Test target: 3rd-instar larvae of Chilo suppressalis (Walker).
as §1
Experimental method: first, tender rice stems were selected and dipped in the prepared pesticide solution for 10 s in the order from low dosage to high dosage according to the experimental design. After natural air-drying in the shade, they were placed in a 9-cm-diameter Petri dish with filter paper, and uniform and healthy test insects were introduced, with 10 insects for each treatment and 3 replicates for each treatment. In addition, a blank control (CK) was set up.
The treated test materials were placed in an observation room, and the temperature, humidity and illumination of the observation room could be adjusted as needed. The number of dead and live insects was investigated 72 hours later. […] Then, the co-toxicity coefficient of each ratio was calculated using the Sun Y-P method to evaluate the mixing effect, as in Example 1.

In test [5] the test system is adult Phyllotreta vittuta Fabr. The test is described as follows: Joint toxicity of I-72 + cyantraniliprole, Example 63, Table 63. The conditions noted are these: A = compound I-72, B = cyantraniliprole; potted cabbage seedling spraying; 72 hours; read-out: LC50. As to the method:
Test target: adult Phyllotreta vittuta Fabr.
as §1
Experimental method: first, uniform and consistent potted cabbage seedlings were selected. Then, uniform spraying was performed with the pesticide solution in the order from low dosage to high dosage according to the experimental design. After air-drying in the shade, adult flea beetles were transferred onto the treated cabbage seedlings, and then glass covers were put on them, with about 30-40 adult flea beetles on each seedling and 3 replicates for each treatment. In addition, a blank control was set up.
The treated test materials were placed in an observation room, and the temperature, humidity and illumination of the observation room could be adjusted as needed. The number of dead and live insects was investigated 72 hours later. […] Then, the co-toxicity coefficient of each ratio was calculated using the Sun Y-P method to evaluate the mixing effect (the same as in Example 1).

In test [6] the test system is Myzus persicae (Sulzer) nymphs. The test is described as follows: whole plant or invertebrate. The conditions noted are these: A = compound I-72, B = clothianidin, cabbage leaf spraying, 48 hours, read-out: LC50. As for the experimental part:
Test target: Myzus persicae (Sulzer) nymphs, a sensitive strain reared indoors.
as §1
Experimental method: first, cabbage leaves with uniform and consistent Myzus persicae (Sulzer) were selected, with about 30-40 insects on each leaf. Then, they were evenly sprayed with the pesticide solution in the order from low dosage to high dosage according to the experimental design, with 1.5 mL of the solution for each leaf and 3 replicates for each treatment. In addition, a blank control was set up.
The treated test materials were placed in an observation room, and the temperature, humidity and illumination of the observation room could be adjusted as needed. The number of dead and live insects was investigated 48 hours later.

In test [7] the test system is early 2nd-instar grubs of Holotrichia diomphalia Bates. Nature of the test: whole plant or invertebrate. Conditions: Holotrichia diomphalia; A = compound I-72, B = tebuconazole; insect-dipping; 72 hours; read-out: LC50. As for the experimental part:
Test target: early 2nd-instar grubs of Holotrichia diomphalia Bates.
Test conditions: temperature: 24-26° C., humidity: RH 60%, and illumination: L:D=14:10
as §1
Experimental method: the activity against Holotrichia diomphalia Bates was determined by the insect-dipping method. The early 2nd-instar grubs of Holotrichia diomphalia Bates were selected. The target insects were dipped into the pesticide solution for 10 s and then taken out. Excess pesticide solution was absorbed with filter paper. […] A treatment without the pesticide was set as the blank control.
The test insects were transferred to a multi-well culture plate with fresh potato pieces and placed in an observation room, and the temperature, humidity and illumination of the observation room could be adjusted as needed. The number of dead and live insects was investigated 72 hours later. The corrected mortality rate was calculated using the Abbott's formula, and statistical analysis was performed with the DPS data processing software to obtain the toxicity regression equation and LC50 value of each single test pesticide and each mixture of different ratios.

As usually defined, the LC50 is the concentration that kills 50% of the test population.

Converted amounts (≈) assume the structure as drawn.

For `CN(C(=O)c1ccc2c(c1)OC(F)(F)O2)c1cccc(C(=O)Nc2c(Br)cc(C(F)(C(F)(F)F)C(F)(F)F)cc2OC(F)F)c1F` [Compound I-72], the LC50 in test [1] was determined as 5.05 µg/mL; in test [2], 2.04 µg/mL; in test [3], 10.9 µg/mL; in test [4] it was 1.05 µg/mL; in test [5], 1.16 µg/mL; in test [6] it was 8.05 µg/mL (≈ 10.9 µM). Further, in test [7], the LC50 worked out at 63.4 µg/mL (≈ 85.5 µM).
